{
  "source": "patent US9970924B2",
  "about": "“Mechanism and drug targets for reducing cell edema (neuroprotection) and cytoplasmic excitability in astrocytes in normal and pathological states” (CELICA D.O.O., priority 2013, dated 2018)",
  "key": {"[1]": {"test_system": "GPR81 receptor / intracellular cAMP levels in astrocytes", "test": "FRET measurements of cAMP in living primary astrocytes transfected with AKAR2", "assay_type": "cell-based, rat", "from_the_text": "Astrocytes expressing Epac1-camps or AKAR2 FRET construct were examined with a Plan NeoFluoar 40×/1.3 Oil DIC immersion objective (Carl Zeiss, Jena, Germany) and 2-fold zoom factor using Zeiss LSM510 META confocal microscope (Carl Zeiss, Jena, Germany). Cells were excited at 458 nm and images (512×512) were acquired every 3.5 s or 7 s using Lambda stack acquisition. Emission spectra were collected from META detector in eight channels (lambda stack) ranging from 470 nm to 545 nm, each with a 10.7-nm width. Two-channel (CFP and YFP) images were generated from lambda stacks by analytical software “Extract channels”. […] YFP and CFP fluorescence intensities were quantified within a region of interest selected for individual cell expressing Epac1-camps or AKAR2 using LSM 510 META software. In the graphs, FRET signal is reported as the ratio of YFP to CFP fluorescence signal after subtracting the background fluorescence from both YFP and CFP signals using Sigma Plot. […]\nThe changes in YFP/CFP fluorescence emission ratio were normalized to baseline ratio values. Single-exponential (F=F0+c×exp (−t/τ)) decay functions or single-exponential rise to maximum functions (F=F0+c×(1−exp(−t/τ))) were fitted to the diagrams with YFP/CFP fluorescence emission ratios using SigmaPlot. The time-constant (τ) and YFP/CFP emission ratio amplitudes (c) were determined from the fitted curves. […]"}, "[2]": {"test_system": "intracellular cAMP levels in astrocytes", "test": "FRET measurements of cAMP in living primary astrocytes transfected with Epac1-camps", "conditions": "for effect on ADR triggered FRET response: 1 μM ADR", "from_the_text": "Astrocytes expressing Epac1-camps or AKAR2 FRET construct were examined with a Plan NeoFluoar 40×/1.3 Oil DIC immersion objective (Carl Zeiss, Jena, Germany) and 2-fold zoom factor using Zeiss LSM510 META confocal microscope (Carl Zeiss, Jena, Germany). Cells were excited at 458 nm and images (512×512) were acquired every 3.5 s or 7 s using Lambda stack acquisition. Emission spectra were collected from META detector in eight channels (lambda stack) ranging from 470 nm to 545 nm, each with a 10.7-nm width. Two-channel (CFP and YFP) images were generated from lambda stacks by analytical software “Extract channels”. Channels with emission spectra 470- and 481-nm and emission spectra 513-, 524-, and 534-nm were extracted to CFP channel and YFP channel, respectively. YFP and CFP fluorescence intensities were quantified within a region of interest selected for individual cell expressing Epac1-camps or AKAR2 using LSM 510 META software. In the graphs, FRET signal is reported as the ratio of YFP to CFP fluorescence signal after subtracting the background fluorescence from both YFP and CFP signals using Sigma Plot. The values of FRET signals were normalized (set to 1.0) at the onset of the experiments. The decrease in FRET signals reflects an increase in [cAMP]i.\n500 μM 3-Chloro-5-hydroxybenzoic acid (3-Cl-5-HBA; GPR81 receptor exogenous agonist).\nThe changes in YFP/CFP fluorescence emission ratio were normalized to baseline ratio values. Single-exponential (F=F0+c×exp (−t/τ)) decay functions or single-exponential rise to maximum functions (F=F0+c×(1−exp(−t/τ))) were fitted to the diagrams with YFP/CFP fluorescence emission ratios using SigmaPlot. The time-constant (τ) and YFP/CFP emission ratio amplitudes (c) were determined from the fitted curves. F is YFP/CFP emission ratio at time t, F0 is baseline YFP/CFP emission ratio, c is YFP/CFP emission ratio amplitude of F(t=0)−F0, and τ is the time constant of individual exponential component."}, "[3]": {"test_system": "astrocytes", "test": "Hypotonically induced cell swelling (cell surface area) of astrocytes", "assay_type": "cell-based", "conditions": "pretreated cells, hypotonic medium ~60% of control osmolarity", "excerpt": "(§1) LSM 510 Meta software was used to measure cell area and perimeter of isolated Epac1-camps positive astrocytes before and after treatment of cell with different reagents."}, "[4]": {"test_system": "astrocytes", "conditions": "within an hour", "excerpt": "as §1"}, "[5]": {"test_system": "[Ca2+]i in astrocytes", "test": "Fluo-4 AM measurements of [Ca2+]i in cultured astrocytes", "assay_type": "cell-based", "conditions": "for effect on hypotonicity-elicited periodic elevations in [Ca2+]i: 1 μM ADR or 10 μM Iso applied after hypotonic medium; for intracellular calcium levels on simultaneous treatment with hypotonic medium: 1 μM ADR or 10 μM Iso with hypotonic medium; for effect on ATP-induced elevation in cytosolic calcium levels: 1 mM ATP + 1 μM ADR or 10 μM Iso; for oscillations in intracellular calcium levels: agent alone: 1 μM ADR; for oscillations in intracellular calcium levels / intracellular Ca2+ levels (F/F0) within first 100 s after stimulation: 10 μM Iso; for intracellular Ca2+ levels (F/F0) within first 100 s after stimulation: agent alone: 1 mM ATP", "protocol": "Live astrocytes were incubated for 30 min at room temperature in medium containing 2 μM of fluorescent dye Fluo-4 AM (Molecular Probes, Invitrogen, Eugene, Oreg., USA). Astrocytes were then transferred to dye-free standard saline solution for at least 30 min before experimentation to allow for cleavage of the AM ester group. Time lapse images were obtained every 3.5 s for up to 10 min with the inverted Zeiss LSM780 confocal microscope with oil-immersion plan apochromatic objective (63×, 1.4 NA) and 488-nm Ar-Ion laser excitation. Emission light was acquired with a 505-530-nm bandpass emission filter. […] Average fluorescence intensity before stimulation of each cell was subtracted from intensities after stimulation (ΔF). Average fluorescence intensity changes normalized to baseline fluorescence intensity (F/F0) were determined for the first 100 s after stimulation."}, "[6]": {"test_system": "astrocytes", "test": "Exocytotic fusion events of Alexa Fluor 546 dextran-labeled vesicles in cultured astrocytes", "assay_type": "cell-based", "conditions": "for number of ATP triggered fusion events per cell: 1 mM ATP + 1 μM ADR or 10 μM Iso", "protocol": "Time-lapse confocal images were obtained every 2 s for 10 min with the inverted Zeiss LSM780 and Zeiss LSM510 META confocal microscopes with oil-immersion plan apochromatic objective (63×, 1.4 NA) and 543-nm He—Ne laser excitation. […] Cells were scanned by eye for an individual exocytotic event by rapidly replaying the movie in forward and reverse directions. The onset of exocytosis was defined as the first frame showing a significant decrease in Alexa Fluor^546-dextran. A circular region of interest was centered on the spot where the event occurred, and changes in the fluorescence intensities of Alexa Fluor^546-dextran were monitored over time."}},
  "note": "Entries after “also recorded” stand apart in the source; their conditions may differ. Read-outs that look alike come from different tables or passages of the source.",
  "data": [
    {"smiles": "O=C(O)c1cc(O)cc(Cl)c1", "note": "[3-Cl-5-HBA]", "values": [
      {"measurement": "intracellular cAMP levels (AKAR2 YFP/CFP ratio; uprise = cAMP increase)", "setting": "[1]; 500 μM 3-Cl-5-HBA", "value": "increase in intracellular cAMP levels"}
    ]},
    {"smiles": "CNCC(O)c1ccc(O)c(O)c1", "note": "(stereo not shown) [ADR, adrenaline]", "values": [
      {"measurement": "increase in FRET response to hypotonic medium (decrease in cAMP)", "setting": "[2]; ADR pre-treated cells, hypotonic medium", "value": "reversible and slowly declined to the baseline"},
      {"measurement": "EC50", "setting": "[2]; Rattus norvegicus, Astrocyte, read-out: concentration of ADR at which 50% of maximum cAMP increase was observed (EC50), maximum YFP/CFP ratio response, Epac1-camps, dose-response", "value": "~30", "unit": "nM"},
      {"measurement": "EC50", "setting": "[2]; read-out: concentration of ADR at which 50% of maximum cAMP increase was observed (EC50), maximum YFP/CFP ratio response, Epac1-camps, dose-response", "value": "29 ± 0.1", "unit": "nM"},
      {"measurement": "hypotonically induced cell swelling (increase in cell surface area)", "setting": "[3]", "value": "reduces hypotonically induced cell swelling; also recorded: reduced"},
      {"measurement": "decrease in cell area", "setting": "[4]", "value": "5-10%"},
      {"measurement": "increase in cell perimeter", "setting": "[4]", "value": "30-50%"},
      {"measurement": "frequency of calcium oscillations compared with hypotonic medium-stimulated cells", "setting": "[5]; 1 μM ADR", "value": "more frequent"},
      {"measurement": "effect on hypotonicity-elicited periodic elevations in [Ca2+]i", "setting": "[5]", "value": "attenuated; also recorded: ceased"},
      {"measurement": "intracellular calcium levels on simultaneous treatment with hypotonic medium", "setting": "[5]", "value": "transient increase in intracellular calcium levels, which was followed by a decline to basal levels"},
      {"measurement": "effect on ATP-induced elevation in cytosolic calcium levels", "setting": "[5]", "value": "diminishes the elevation in cytosolic calcium levels"},
      {"measurement": "oscillations in intracellular calcium levels", "setting": "[5]", "value": "induced oscillations in intracellular calcium levels"},
      {"measurement": "intracellular Ca2+ levels (F/F0) within first 100 s after stimulation", "setting": "[5]; 1 μM ADR", "value": "increased"},
      {"measurement": "number of ATP triggered fusion events per cell", "setting": "[6]", "value": "reduce the number of exocytotic fusion events; also recorded: diminished"}
    ]},
    {"smiles": "Nc1ncnc2c1ncn2[C@@H]1O[C@H](COP(=O)(O)OP(=O)(O)OP(=O)(O)O)[C@@H](O)[C@H]1O", "note": "[ATP, adenosine-5′-triphosphate]", "values": [
      {"measurement": "intracellular Ca2+ levels (F/F0) within first 100 s after stimulation", "setting": "[5]; 1 μM ADR", "value": "increased"},
      {"measurement": "exocytotic fusion release events", "setting": "[6]; 1 mM ATP", "value": "triggered exocytotic fusion release events"}
    ]},
    {"smiles": "C[C@H]1O[C@@H](n2cnc3c(N)ncnc32)C[C@@H]1O", "note": "[DDA, 2′,5′-dideoxiadenosine]", "values": [
      {"measurement": "effect on ADR triggered FRET response", "setting": "[2]; 100 μM DDA", "value": "slower decay kinetics"}
    ]},
    {"smiles": "CC(C)Cn1c(=O)n(C)c(=O)c2[nH]cnc21", "note": "[IBMX]", "values": [
      {"measurement": "effect on Epac1-camps response to FSK", "setting": "[2]; 200 μM IBMX with 50 μM FSK", "value": "increased Epac1-camps response to AC activator FSK"}
    ]},
    {"smiles": "CC(C)NCC(O)c1ccc(O)c(O)c1", "note": "(stereo not shown) [Iso, isoprenaline]", "values": [
      {"measurement": "hypotonically induced cell swelling (increase in cell surface area)", "setting": "[3]", "value": "reduced"},
      {"measurement": "effect on hypotonicity-elicited periodic elevations in [Ca2+]i", "setting": "[5]", "value": "ceased"},
      {"measurement": "intracellular calcium levels on simultaneous treatment with hypotonic medium", "setting": "[5]", "value": "transient increase in intracellular calcium levels, which was followed by a decline to basal levels"},
      {"measurement": "effect on ATP-induced elevation in cytosolic calcium levels", "setting": "[5]", "value": "diminishes the elevation in cytosolic calcium levels"},
      {"measurement": "oscillations in intracellular calcium levels", "setting": "[5]", "value": "not"},
      {"measurement": "intracellular Ca2+ levels (F/F0) within first 100 s after stimulation", "setting": "[5]; 1 μM ADR", "value": "no significant difference"},
      {"measurement": "number of ATP triggered fusion events per cell", "setting": "[6]", "value": "diminished"}
    ]},
    {"smiles": "CC(C)NCC(O)COc1cccc2ccccc12", "note": "(stereo not shown) [Pro, propranolol]", "values": [
      {"measurement": "effect on ADR triggered FRET response", "setting": "[2]; 1 μM Pro", "value": "completely prevented"}
    ]},
    {"smiles": "C[C@H](O)C(=O)[O-].[Na+]", "note": "[lactate, Sodium L-lactate]", "values": [
      {"measurement": "intracellular cAMP levels (Epac1-camps YFP/CFP ratio; decline = cAMP increase)", "setting": "[2]; 20 mM lactate", "value": "increase in intracellular cAMP levels"},
      {"measurement": "intracellular cAMP levels (AKAR2 YFP/CFP ratio; uprise = cAMP increase)", "setting": "[1]; 20 mM lactate", "value": "increase in intracellular cAMP levels"}
    ]}
  ]
}
